The text below walks through data of patent publication US20230414515A1, “ACETIC ACID AS PROCESSING AID IN SPRAY DRYING FOR BASIC DRUGS” (Lonza Bend Inc., priority 2020, published 2023).

For data set [1] the following is noted: cited from earlier work; for basic pKa: pH at which half of the basic sites are protonated.
Data set [2] can be described thus: Solubility of dasatinib in methanol (saturated solution, TGA). The class given is physicochemical. Particulars: organic solvent or mixture, thermodynamic from solid, 25° C., analyzed by TGA. On the procedure: Dasatinib free base was recrystallized from methanol and dried. Crystalline dasatinib was added in excess to methanol to form a saturated solution at 25° C. The solution was analyzed by TGA and found to contain 3.1 mg/mL dasatinib.

A short description of data set [3]: Gefitinib solubility in methanol and methanol:water mixtures without acetic acid (HPLC). As to conditions: thermodynamic from solid, 24 hour stirring. The class given is physicochemical. Here is the method:
Crystalline gefitinib was added in excess to methanol and methanol:water mixtures to form saturated solutions at 20° C. After 24 hour of stirring, 1 mL aliquots were centrifuged at 10′000 RCF for 3 min.

The next data set in a line: physchem. As to conditions: 20 °C, organic solvent or mixture, thermodynamic from solid.

In brackets after ≈: the same amount, converted by molar mass.

Experimental for physchem: The solubility of gefitinib in solvent mixtures with acetic acid were obtained by suspending 300 mg of crystalline gefitinib in 5 mL of solvent (methanol:water) containing 150 microliters of acetic acid at 20° C. (3.9 eq of acetic acid). […] The solubility in 100% methanol with acetic acid was determined after separating undissolved solids by centrifugation of a 1 mL aliquot at 10′000 RCF for 3 min after 1 hour of stirring. The supernatant was then analyzed for gefitinib concentration by HPLC.

`COc1ccc(-n2nc(C(N)=O)c3c2C(=O)N(c2ccc(N4CCCCC4=O)cc2)CC3)cc1` [Apixaban, apixaban]: the “acidic pKa” value in data set [1] (pH at which half of the acidic site is deprotonated) is listed as “ca. 13”. Moreover, the “basic pKa” value in data set [1] is on record as under 2.
Turning to `N#Cc1ccnc(N2C(=O)CC[C@H]2C(=O)N(c2cncc(F)c2)[C@H](C(=O)NC2CC(F)(F)C2)c2ccccc2Cl)c1` [Ivosidenib, ivosidenib], in data set [1], the “basic pKa” value was “ca. 1.81”.
For `CCC[C@H](NC(=O)[C@@H]1[C@H]2CCC[C@H]2CN1C(=O)[C@@H](NC(=O)[C@@H](NC(=O)c1cnccn1)C1CCCCC1)C(C)(C)C)C(=O)C(=O)NC1CC1` [VX-950, Telaprevir], in data set [1], the “basic pKa” value is −0.69.
Regarding `Cc1nc(Nc2ncc(C(=O)Nc3c(C)cccc3Cl)s2)cc(N2CCN(CCO)CC2)n1` [dasatinib], in data set [2], the solubility was 3100 µg/mL (≈ 6.35 mM). Further, the “basic pKa” value in data set [1] is given as 7.2.
As for `COc1cc2ncnc(Nc3ccc(F)c(Cl)c3)c2cc1OCCCN1CCOCC1` [gefitinib], the solubility at 24 h turned out to be 2100 µg/mL (≈ 4.7 mM) in data set [3] (methanol:water 60:40, organic solvent or mixture, Methanol:H2O 60:40, 20° C.); 4000 µg/mL (≈ 8.95 mM) in data set [3] (methanol:water 70:30, organic solvent or mixture, Methanol:H2O 70:30, 20° C.); 6300 µg/mL (≈ 14.1 mM) in data set [3] (methanol:water 80:20, organic solvent or mixture, Methanol:H2O 80:20, 20° C.); 6000 µg/mL (≈ 13.4 mM) in data set [3] (methanol:water 90:10, organic solvent or mixture, Methanol:H2O 90:10, 20° C.); 5200 µg/mL (≈ 11.6 mM) in data set [3] (organic solvent or mixture, Methanol:H2O 100:0, 20° C.). For the same compound, in data set [1], the “basic pKa” value was 6.8. The solubility at 1 h in “physchem” (methanol with acetic acid) worked out at 31000 µg/mL (≈ 69.4 mM). The solubility in “physchem” (methanol:water 60:40 with acetic acid) was over 60000 µg/mL; in the data set “physchem” (methanol:water 70:30 with acetic acid), over 60000 µg/mL; in “physchem” (methanol:water 80:20 with acetic acid), over 60000 µg/mL; in “physchem” (methanol:water 90:10 with acetic acid), over 60000 µg/mL; in the data set “physchem” (methanol:water mixtures with acetic acid) it was at least 60000 µg/mL.

The solubility is how much of the substance goes into solution per volume.
